In patent US9677052B2, “Modified lipopolysaccharide glycoform and method of use” (THE TRUSTEES OF PRINCETON UNIVERSITY, priority 2014, dated 2017):

How the values were obtained:
waaL15 bacteria = details: 1 μg/ml vancomycin-BODIPY-FL, 10 min, wild-type background with intact OM
Procedure: (§1) Overnight cultures were sub-cultured at 1:100 into fresh LB broth and grown for 1.5 h. A1 ml aliquot was taken, pelleted and was twice washed with 1 ml M63 medium. Cells were resuspended in 0.1 ml of M63 broth containing 1 μg/ml of vancomycin-BODIPY-FL (LifeTechnologies, V-34850). Cells were incubated at room temperature for 10 min and then washed twice with 1 ml M63 broth. Cells were then resuspended in 0.03 ml of M63 broth, and approximately […] was spotted onto an M63-agarose pad. Cells were immediately visualized on a Nikon Eclipse 90i microscope with a Nikon Plan Apo 1.4/100× Oil Ph3 phase objective.
(§2) The ability of purified LPS* to bind vancomycin in vitro was assessed. LPS* was immobilized on a carboxymethylated dextran (CM3) chip and surface plasmon resonance was used to monitor interactions with differing concentrations of vancomycin. […] To test this hypothesis, weperformed live cell microscopy using a fluorescent vancomycin-BODIPY. A wild-type strain background with an intact OM that prevents the influx of vancomycin was used, to avoid labeling intracellular sites of PG synthesis.

waaL+ cells = details: 1 μg/ml vancomycin-BODIPY-FL, 10 min, wild-type background with intact OM
Procedure: as §1, §2

[1] = Surface plasmon resonance, vancomycin over reference channel (LPS from waaL+); assay type: binding, Escherichia coli; details: SPR, 25° C., different concentrations of vancomycin
Procedure: Purified LPS (0.5 mg/ml) from strains MG1210 or MG1211 were extruded in 20 mMTris/HCl pH 8, 150 mM NaCl and immobilized on poly-L-lysine coated CM3 Biacore chips on the active and reference channel, respectively (Malojcić et al., 2014). All experiments were performed using a Biacore X100 instrument at 25° C. at a flow rate of 10 μl/min with 20 mMTris/HCl pH 8, 150 mM NaCl buffer. Different concentrations of vancomycin were injected for 400 s and dissociation was recorded for another 500 s to return to baseline. […] The equilibrium signal in the difference channel was fitted to f=Bmax*abs(x)/(Kd+abs(x)) with R^2=0.88.

[2] = Surface plasmon resonance, vancomycin over immobilized purified LPS*; set-up: species or system Escherichia coli; details: SPR, Biacore X100, 25° C., LPS* immobilized on CM3 chip, equilibrium signal fit; read-out: Kd, specific binding of vancomycin to LPS*
Procedure: as §2

Compound	fluorescent labeling of cells (waaL15 bacteria)	fluorescent labeling of cells (waaL+ cells)	binding to the reference channel [1]	Kd [2] [nM]
vancomycin-BODIPY-FL	circumferential labeling	could not be fluorescently labeled	–	–
CN[C@H](CC(C)C)C(=O)N[C@H]1C(=O)N[C@@H](CC(N)=O)C(=O)N[C@H]2C(=O)N[C@H]3C(=O)N[C@H](C(=O)N[C@H](C(=O)O)c4cc(O)cc(O)c4-c4cc3ccc4O)[C@H](O)c3ccc(c(Cl)c3)Oc3cc2cc(c3O[C@@H]2O[C@H](CO)[C@@H](O)[C@H](O)[C@H]2O[C@H]2C[C@](C)(N)[C@H](O)[C@H](C)O2)Oc2ccc(cc2Cl)[C@H]1O [vancomycin]	–	–	No binding	480 ± 80
